Assays:
[1] = prodrug compared with penciclovir; cited from earlier work
[2] = system: CMV-specific CD4+ T cells; assay: CD4+ T cells producing interferon-gamma after CMV lysate stimulation, single individual (Example 2, FIG. 17); type: in vivo, human; details: before, 3 and 14 months after treatment with acyclovir 40 mg b.d.
Text: Referring to FIG. 17, the blood was stimulated with CMV lysate, and the percentage of CD4+ T cells which produce interferon-gamma in response to antigen measured. It can be seen that this percentage was reduced on treatment.

CMV-specific T cells [3] = assay: CMV-specific T cells detected by Interferon-gamma expression in blood of patients taking ACV or VCV (Example 1, FIGS. 9, 10); type: in vivo, human
[4] = cited from earlier work; for side effects: at common doses
CMV [5] = details: cited from earlier work
CMV-specific T cells [6] = assay: Elispot analysis of antigen-specific T cells after CMV lysate stimulation (Example 1, FIG. 11); type: in vivo, human; details: patients taking ACV or VCV vs healthy CMV seropositive donors
Procedure: (§1) The CMV-specific immune response was measured in a cohort of CMV seropositive or seronegative donors who are taking acyclovir or valaciclovir. This was compared to an age-matched control cohort. […] Comprehensive analysis of (1) the total T cell profile of these donors, and (2) their CMV-specific response, was performed. The results were compared to an age-matched control group of CMV seropositive or seronegative donors.
A reduced Elispot response to CMV is seen in patients taking ACV or VCV.

CMV-specific T cells [7] = assay: Interferon-gamma Elispot analysis of CMV-specific T cells, single individual (Example 2, FIG. 18); type: in vivo, human; details: before, 3 and 14 months after treatment with acyclovir 40 mg b.d., CMV lysate or pp65 or IE-1 peptide pools
Text: Finally, referring to FIG. 18, the blood was stimulated with CMV lysate, or peptide pools from CMV pp65 or IE-1, and the number of CMV-specific T cells was detected using interferon-gamma Elispot analysis. It can be seen that the magnitude of this response was reduced by treatment.

CD4+ T cells = assay: CD27, CD28, CD57 antibody staining of peripheral blood CD4+ T cells (Example 1, FIGS. 12-15); type: in vivo, human; details: CMV-seropositive patients taking ACV or VCV vs healthy donors; for percentage of CD4+ T cells which have lost expression of CD27: FIGS. 12, 13; for percentage of CD4+ T cells which have lost expression of CD28: FIGS. 12, 14; for percentage of CD4+ T cells which have gained expression of CD57: FIGS. 12, 15
Procedure: as §1
In FIG. 12, CD4+ T cells in peripheral blood of 35 CMV-seropositive or seronegative healthy donors were stained with antibodies to CD27, CD28 or CD57. These are shown on the left panel. A similar analysis was performed on patients taking acyclovir or valacyclovir (right hand panel). It can be seen that the percentage of CD4 + T cells which have lost expression of CD27 or CD28, or have gained expression of CD57, is lower in CMV-seropositive patients who are taking ACV or VCV in comparison to healthy donors.
Referring to FIG. 13, CD4+ T cells in peripheral blood of 25 healthy donors or patients taking ACV or VCV were stained with antibodies to CD27.
Referring to FIG. 14, CD4+ T cells in peripheral blood of 25 healthy donors or patients taking ACV or VCV were stained with antibodies to CD28.
Referring to FIG. 15, CD4+ T cells in peripheral blood of 25 healthy donors or patients taking ACV or VCV were stained with antibodies to CD57.

CD8+ T cells = assay: CD57 antibody staining of peripheral blood CD8+ T cells (Example 1, FIG. 16); type: in vivo, human; details: CMV seropositive donors, patients taking drug vs healthy controls
Procedure: as §1

CMV [8] = details: ganciclovir and valganciclovir compared with acyclovir and valacyclovir; cited from earlier work
[9] = FIG. 9, CMV seropositive patients on ACV 400 mg b.d. or VCV 500 mg o.d. or b.d. vs healthy control CMV seropositive donors, CMV lysate or pp65 and IE-1 peptide pools
[10] = FIG. 10, time-dependent effect, ACV 400 mg b.d. or VCV 500 mg o.d. or b.d., CMV lysate

Structure (SMILES) | number of CMV-specific T cells (Interferon-gamma expression) (CMV-specific T cells [3]; [9]) | number of CMV-specific T cells (Interferon-gamma expression) (CMV-specific T cells [3]; [10]) | side effects [4] | Elispot response to CMV (CMV-specific T cells [6]) | percentage of CD4+ T cells which have lost expression of CD27 (CD4+ T cells) | percentage of CD4+ T cells which have lost expression of CD28 (CD4+ T cells) | percentage of CD4+ T cells which have gained expression of CD57 (CD4+ T cells) | percentage of CD8+ T cells which express CD57 (CD8+ T cells) | activity against CMV (CMV [8]) | also measured
CC(=O)OCC(CCn1cnc2cnc(N)nc21)COC(C)=O [Famciclovir] | – | – | – | – | – | – | – | – | – | bioavailability [1]: improved bioavailability
Nc1nc2c(ncn2COCCO)c(=O)[nH]1 [acyclovir, 9-(2-hydroxyethoxymethyl)guanine] | reduced | reduced | nausea, vomiting, diarrhoea and/or headaches | reduced | reduced | reduced | reduced | reduced | – | percentage of CD4+ T cells which produce interferon-gamma in response to antigen [2]: reduced; activity against CMV replication in vitro (CMV [5]): minimal activity; number of CMV-specific T cells (magnitude of interferon-gamma Elispot response) (CMV-specific T cells [7]): reduced; percentage of CD4+ T cells which have lost expression of CD27 (CD4+ T cells; listed as ACV): lower; percentage of CD4+ T cells which have lost expression of CD28 (CD4+ T cells; listed as ACV): lower; percentage of CD4+ T cells which have gained expression of CD57 (CD4+ T cells; listed as ACV): lower
Nc1nc(O)c2ncn(COC(CO)CO)c2n1 [ganciclovir] | – | – | – | – | – | – | – | – | markedly improved activity | carcinogenicity, teratogenicity, mutagenicity ([4]; human): potential human carcinogen, teratogen, and mutagen
Nc1nc2c(ncn2CCC(CO)CO)c(=O)[nH]1 [penciclovir] | – | – | – | – | – | – | – | – | minimal activity | side effects compared with acyclovir ([4]; treatment of herpesvirus infections): fewer side effects
CC(C)[C@H](N)C(=O)OCCOCn1cnc2c(=O)[nH]c(N)nc21 [valacyclovir] | reduced | reduced | nausea, vomiting, diarrhoea and/or headaches | reduced | reduced | reduced | reduced | reduced | – | percentage of CD4+ T cells which have lost expression of CD27 (CD4+ T cells; listed as VCV): lower; percentage of CD4+ T cells which have lost expression of CD28 (CD4+ T cells; listed as VCV): lower; percentage of CD4+ T cells which have gained expression of CD57 (CD4+ T cells; listed as VCV): lower
CC(C)[C@H](N)C(=O)OCC(CO)OCn1cnc2c(=O)nc(N)[nH]c21 (stereo partly shown) [valganciclovir] | – | – | – | – | – | – | – | – | markedly improved activity | –

From patent US20100280052A1, “USE OF ANTIVIRALS TO TREAT CMV-RELATED CONDITIONS” (priority 2007, published 2010)
